Legend:
canine blood PMNs [1] = experiment: Phagocytosis of pHrodo-labeled S. pseudintermedius 06-3228 in dog blood (flow cytometry); type: cell-based; details: 37° C., adenosine 15 μM, ADP analogue 500 μM, ZM241385 1 μM
Protocol: (§1) Bacteria for the phagocytosis assay were labeled using a pHrodo™ phagocytosis particle labeling kit (Life technologies, P35369) (10). Briefly, overnight cultures of S. pseudintermedius 06-3228 and 08-1661 were diluted 1:100 into fresh TSB and grown for 3 hours at 37° C. Bacteria were centrifuged, washed twice, and diluted to 20 mg/mL wet weight in 0.1 M sodium bicarbonate, pH 8.5, and pHrodo™ dye was dissolved in DMSO at 10 mM. The bacteria were suspended at a final dye concentration of 0.5 mM. The inhibitory effect of SpAdsA on canine neutrophils was evaluated in blood samples by exposing the EDTA-whole blood samples to pHrodo™ dye-labeled S. pseudintermedius 06-3228 and 08-1661 for 30 and 60 minutes at 37° C. The RBCs were lysed using Red Blood Cell Lysing Buffer Hybri-Max™ (Sigma-Aldrich, Cat NO. R7757) followed by centrifugation and washing. The final cell pellet, containing leukocytes, was suspended in wash buffer and analyzed using a flow cytometer equipped with a 488-nm argon ion laser (Attune acoustic focusing cytometry).

canine blood PMNs [2] = experiment: Phagocytosis of pHrodo-labeled S. pseudintermedius 08-1661 in dog blood (flow cytometry); type: cell-based; details: 37° C., adenosine 15 μM, ADP analogue 500 μM, A2A receptor antagonist
Protocol: as §1

[3] = test system: S. pseudintermedius 06-3228; experiment: Bacterial survival in canine blood; type: cell-based, Staphylococcus pseudintermedius; details: adenosine 15 μM; 5′-(α, β-methylene) diphosphate 500 μM; ZM241385; 1, 1.5, 2 hours; versus bacteria alone
Protocol: (§2) Overnight cultures of S. pseudintermedius 06-3228 and 08-1661 were diluted 1:100 into fresh TSB and grown for 3 hours at 37° C. Staphylococci were centrifuged 9000×g, washed twice, and diluted in PBS to yield an O.D 600 of 0.5. Then 100 μl of 4×10^6 CFU per ml of bacteria were mixed with 500 μl of fresh canine blood, collected in EDTA. The samples were incubated at 37° C. with 100 rpm shaking and harvested at 60, 90 and 120 minutes. They were incubated on ice for 30 minutes in 1 ml of Red Blood Cell Lysing Buffer Hybri-Max™ (Sigma-Aldrich, Cat NO. R7757), then bacteria were pelleted at 9,000×g at 4° C. and plated on tryptic soy agar (TSA) for enumeration of viable bacteria.

[4] = test system: S. pseudintermedius 08-1661; experiment: Bacterial survival in canine blood; type: cell-based, Staphylococcus pseudintermedius; details: adenosine 15 μM; 5′-(α, β-methylene) diphosphate 500 μM; ZM241385; 1, 1.5, 2 hours; versus bacteria alone
Protocol: as §2

canine PMNs [5] = experiment: Binding of biotin labelled wild type and attenuated LukS and LukF to canine PMNs; type: cell-based, dog; details: biotin labelled proteins, 30 minutes
Protocol: Purified recombinant S. pseudintermedius wild type and attenuated LukS and LukF at 500 μg/ml in PBS (pH 7.2) were incubated with 50 μl of 10 mM EZ-Link Sulfo-NHS-LC-Biotin reagent (equal to 20-fold molar excess of biotin) (Thermo Scientific, Cat No. 21327) for 30 min at room temperature. Excess biotin was removed using an Amicon Ultra-0.5 Centrifugal Filter Unit with a 30 kDa molecular weight cut-off (Milipore sigma, Cat No. UFC5030). The biotin-labeled proteins were stored at −20° C. until further use.
To test the binding of wild type and attenuated LukS and LukF to canine PMNs, biotin labelled recombinant proteins were incubated with PMNs from a clinical healthy dog for 30 minutes at room temperature, the cells were washed, then PMNs were incubated with 1:500 dilution of avidin-FITC conjugate (Sigma-Aldrich, A2050) at room temperature for 30 minutes in the dark. Unbound conjugate was removed by washing and the amount of binding was determined using a flow cytometer (Attune acoustic focusing cytometer) by gating on PMNs based on their side and forward scatter properties.

clinically normal dogs = experiment: Antibody response of dogs injected with SpEX-M (ELISA); type: in vivo, dog; details: 20 μg subcutaneous, three weekly injections; sera days −7, 8, 15, 29; versus pre-injection sera
Protocol: Recombinant SpEX-M (SEQ ID NO:12) produced in E. coli was purified using affinity chromatography (as above) and endotoxin concentration was measured using a ToxinSensor™ Chromogenic LAL Endotoxin Assay Kit (Genscript, Cat. No. L00350). Recombinant SpEX-M at 20 μg each/0.5 cc in phosphate buffered saline (PBS) (pH 7.2) were injected in the lateral thorax by the subcutaneous route, into three clinically normal dogs. Injections were given once every 7 days for a total of three injections with a control dog receiving PBS (pH 7.2) only. Blood (6 cc) was collected from a jugular vein 4 times, on days −7, 8, 15 and 29 (relative to injections). […]
For measurement of recombinant protein antigenicity, SpEX and SpEX-M were coated separately onto ELISA plates (Corning, Cat No. 3590) at 2 μg/ml in PBS. The plates were washed with 0.05% PBS-T and incubated with two-fold serial diluted serum from dogs (injected with recombinant proteins) for 1 h at 37° C., then bound IgG was detected using HRP-conjugated goat anti-dog IgG-heavy and light chain (Bethyl Laboratories, Inc. Cat No. A40-123-1). ELISA assays plates were washed three times with PBS-T between all incubations, bound antibodies were detected using TMB substrate (Thermo Scientific, Cat No. N301), reactions were stopped with 0.18 M sulphuric acid and optical density read at 450 nm on a plate reader (Bio TEK, EL800). […]

canine PBMCs = experiment: PBMCs permeability assay (Sytox green); type: cell-based, dog; details: 100 μg, 30 min, relative to SpEX
Protocol: (§3) PMNs and PBMCs were separated as previously described. PMNs and PBMCs were incubated with recombinant proteins (SpEX and SpEX-M) at concentration of 100 μg in a volume of 500 μl in RPMI medium supplemented with 10% fetal bovine serum in a 5% CO2 incubator for 30 min. The supernatant of S. pseudintermedius 06-3228 was harvested at log phase to test the toxic effect of secreted SpEX. PMNs and PBMCs were stained with 1 Sytox green (Life Technologies, Inc. Cat No. 1776406) for 30 min, washed twice with PBS (pH 7.2) and analyzed using a flow cytometer (Attune acoustic focusing cytometer) by gating on PMNs and PBMCs based on their side and forward scatter properties.
(§4) To determine the protective effect of canine anti-SpEX-M on PMNs and PBMCs, recombinant S. pseudintermedius SpEX at concentration of 100 μg/ml in PBS (pH 7.2) was incubated for 30 minutes at 37° C. with serum from SpEX-M injected dogs. The experiment was run in duplicate and a p-value of <0.05 was considered significant.
(§5) For flow cytometry analysis the cut-off for cell death was established using leukocytes incubated without SpEX. Mean fluorescent intensity was determined from all gated cells.

canine PMNs [6] = experiment: PMNs permeability assay (Sytox green); type: cell-based, dog; details: 100 μg, 30 min, relative to SpEX
Protocol: as §3, §4, §5

canine B cells [7] = experiment: B cell death (Sytox green, flow cytometry); type: cell-based, dog; details: 3.5 h incubation; ± SEM
Protocol: (§6) A total of 100 μg of purified recombinant SpsQ or SpsQ-M was mixed with isolated peripheral blood mononuclear cells (PBMC) in 1 ml of RPMI medium supplemented with 10% fetal bovine serum and incubated for 1.5 h at 37° C. in a 5% CO2 incubator. To detect early phases of B cell apoptosis, phosphatidylserine was measured on the surface of cells using pacific blue-conjugated annexin (Thermo Scientific, USA Cat No. A35136). B cells were identified using phycoerythrin (PE) conjugated mouse anti-canine CD21 (clone: CA2.1D6) (BIO-RAD, USA Cat No. MCA1781PE) that recognizes canine CD21 (complement receptor type 2) on mature B lymphocytes. Stained B cells were analyzed using a flow cytometer (Attune acoustic focusing cytometer). B cells were also incubated with the same recombinant proteins as described above but for 3.5 h in order to detect B cell death. Cells were stained with Sytox green (Life Technologies, Inc., USA Cat No. 1776406) and PE-conjugated mouse anti-canine CD21. Gates were placed on cells positive for PE and these B cells were analyzed by flow cytometry.
(§7) For flow cytometry analysis the cut-off for apoptosis or cell death was established using leukocytes incubated without SpsQ. Mean fluorescent intensity was determined from all B cells.

canine B cells [8] = experiment: B cell apoptosis (annexin, flow cytometry); type: cell-based, dog; details: 1.5 h
Protocol: as §6, §7

dog IgA = experiment: ELISA reactivity with dog IgA; type: binding; details: compared to SpsQ and SpA
Protocol: (§8) To test the reactivity of serum from a dog with chronic pyoderma, S. aureus SpA and S. pseudintermedius SpsQ and SpsQ-M were coated on ELISA plates (Corning, USA Cat No. 3590) at 2 μg/ml in PBS. They were incubated with serum at a dilution of 1:2000. Bound IgG, IgM, and IgA were detected by HRP-goat anti-dog IgG-heavy and light chain (Bethyl Laboratories, Inc., USA Cat No. A40-123-1), HRP-goat anti-dog IgM μ chain (Bethyl Laboratories, Inc., USA Cat No. A40-116-2), HRP-goat anti-dog IgA (Bethyl Laboratories, Inc., USA Cat No. A40-104P) at a dilution of 1:8000 in PBS-T. Dog whole IgG molecule (Rockland, USA Cat No. 004-0102-1000) was used for comparison to measure non-specific IgG binding.

dog IgG = experiment: ELISA reactivity with dog serum / dog IgG; type: binding; details: compared to SpsQ and SpA
Protocol: as §8

dog IgM = experiment: ELISA reactivity with dog IgM; type: binding; details: compared to SpsQ and SpA
Protocol: as §8

[9] = test system: chicken anti-protein A antibody; experiment: ELISA antigenicity with HRP-chicken anti-protein A antibody; type: binding; details: coated protein
Protocol: For measurement of the antigenicity of recombinant proteins, affinity-purified SpsQ and SpsQ-M were coated on ELISA plates (Corning, USA Cat No. 3590) at […] in PBS (pH 7.2). The plates were washed with PBS-T and incubated with HRP-chicken anti-protein A antibody (Gallus Immunotech, USA Cat No. APA) for 1 h at 37° C., then washed. For this and all subsequent ELISA assays, plates were washed three times with PBS-T between all incubations, bound antibodies were detected using TMB substrate (Thermo Scientific, USA Cat No. N301), reactions were stopped with 0.18 M sulphuric acid and optical density read at 450 nm on a plate reader (Bio TEK, USA Cat No. EL800). The experiment was repeated at least three times and a p-value of <0.05 was considered significant, which was the same for all the experiments unless mentioned otherwise.

| Compound | phagocytosis, mean MFI (canine blood PMNs [1]; 06-3228, 30 minutes) | phagocytosis, mean MFI (canine blood PMNs [1]; 06-3228, 60 minutes) | phagocytosis, mean MFI (canine blood PMNs [2]; 08-1661, 30 minutes) | phagocytosis, mean MFI (canine blood PMNs [2]; 08-1661, 60 minutes) | survival of S. pseudintermedius 06-3228 in canine blood [3] | survival of S. pseudintermedius 08-1661 in canine blood [4] | binding to canine leukocytes (canine PMNs [5]) | further results |
| --- | --- | --- | --- | --- | --- | --- | --- | --- |
| Nc1nc(NCCc2ccc(O)cc2)nc2nc(-c3ccco3)nn12 [ZM241385] | 241513 | no significant difference | 1,306,729 | 2,924,203 | significantly decreased at all of time points | significantly decreased at all of time points |  |  |
| Nc1ncnc2c1ncn2[C@@H]1O[C@H](CO)[C@@H](O)[C@H]1O [adenosine] | 89,583 | 711,453 | 375,737 | 764,921 | significantly promoted | significantly promoted |  |  |
| LukF-M: attenuated Leukotoxin F with substitutions S59D and N65A |  |  |  |  |  |  | bound to canine leukocytes without causing any significant killing |  |
| LukS-M: attenuated Leukotoxin S with substitutions T57F, K128A and S239A |  |  |  |  |  |  | bound to canine leukocytes without causing any significant killing |  |
| SpEX-M: attenuated SpEX with substitutions D 102A, T125P, T206P and R217A |  |  |  |  |  |  |  | IgG against S. pseudintermedius SpEX-M and SpEX in sera of injected dogs (clinically normal dogs): reached the highest level on day 29; killing effect on PBMCs of dogs (canine PBMCs): diminished killing effect; killing effect on PMNs (canine PMNs [6]): diminished killing effect |
| SpsQ-M: attenuated non-toxigenic S. pseudintermedius protein A with Q5K, Q6K, D32A, D33A in each Ig binding domain |  |  |  |  |  |  |  | Sytox MFI reduction compared to that of SpsQ (canine B cells [7]): 519065±128292; apoptotic effect on B cells (canine B cells [8]; 100 μg protein, PBMC): low apoptotic effect; mean+/−SEM fluorescent intensity (MFI) difference between SpsQ and SpsQ-M (canine B cells [8]): 2052±285.2; binding to IgA (dog IgA): significantly lower binding; binding to commercial dog IgG (dog IgG): significantly lower binding; binding to IgM (dog IgM): significantly lower binding; reactivity with chicken anti-protein A (antigenicity) [9]: strong reactivity |
